Data from patent US8058442B2 (Technion Research and Development Foundation Ltd., priority 2002, dated 2011).
Like-named read-outs stand apart in the source and are kept apart here.

How the values were obtained:
PC12 cells = experiment: Neuroprotection of PC12 cells against serum-deprivation induced apoptosis (MTT test); assay type: cell-based, rat; conditions: for number of survival cells (cell viability, % of cells cultured with serum): 0.1 μM chelator, serum-free medium, 24 h, serum-free control 38%
Protocol: Rat PC12 cells, originated from rat pheochromocytoma, were grown at 37° C., in a humid 5% CO2, 95% air environment, in a growth medium containing Dulbecco's modified Eagle's Medium (DMEM, GIBCO, BRL) supplemented with glucose (1 mg/1 ml), 5% fetal calf serum, 10% horse serum, and 1% of a mixture of streptomycin/penicillin. On confluence, the culture was removed and the cells were detached by vigorous washing, centrifuged at 200 g for 5 min and resuspended in DMEM with full serum content. 0.5×10^4 cells/well were placed in microtiter plates (96 wells) precoated with collagen (10 μg/cm^2 were allowed to attach for 24 h before treatment).
Twenty-four hours after attachment of the PC12 cells as described in (g), the medium was replaced with DMEM containing 0.1% BSA. The test compounds were added to the cells after 1 h of incubation. After 24 h incubation, the cells were subjected to MTT test as previously described (Gassen et al., 1998). The absorption was determined in a Perkin-Elmer Dual Wavelength Eliza-Reader at λ=570/650 nm after automatic subtraction of background readings. The results are expressed as percentage of the untreated control.
PC12 cells were grown in serum-free medium alone or in serum-free medium with different concentration of the chelators VK-28, M32, HLA20 and Rasagiline. After 24 h incubation, the cells were subjected to MTT test.
Cell viability was expressed as a percentage of cells cultured in medium supplemented with serum, which served as the control group and was designated as 100%. […] Experimental data are shown as mean±SD (r=6).

rat brain MAO-B = target: T1, rat brain MAO-B (Rattus norvegicus, UniProt P19643); experiment: In vitro inhibition of rat brain MAO-B; assay type: biochemical; conditions: read-out: inhibition of MAO-B
T1 construct: from tissue; host or cells: rat brain homogenate, 4500 g pellet
T1 sequence (P19643 1-520): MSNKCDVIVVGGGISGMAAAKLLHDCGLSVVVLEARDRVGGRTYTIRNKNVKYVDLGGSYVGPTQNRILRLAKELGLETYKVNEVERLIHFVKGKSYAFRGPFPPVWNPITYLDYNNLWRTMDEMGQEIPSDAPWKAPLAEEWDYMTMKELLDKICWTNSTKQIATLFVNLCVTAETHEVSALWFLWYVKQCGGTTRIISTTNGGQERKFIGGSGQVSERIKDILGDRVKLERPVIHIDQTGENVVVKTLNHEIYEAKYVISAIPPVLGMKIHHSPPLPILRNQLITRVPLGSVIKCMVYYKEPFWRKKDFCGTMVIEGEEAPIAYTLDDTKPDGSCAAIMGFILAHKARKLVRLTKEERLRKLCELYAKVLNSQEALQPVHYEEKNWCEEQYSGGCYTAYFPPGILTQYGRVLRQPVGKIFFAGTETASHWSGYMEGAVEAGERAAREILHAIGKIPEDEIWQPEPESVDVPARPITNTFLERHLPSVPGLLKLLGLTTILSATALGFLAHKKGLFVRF
Protocol: Rats were decapitated and the brains were quickly taken into a weighted ice-cold sucrose buffer (0.32 M), and their weights were determined. All subsequent procedures were performed at 0-4° C. The brains were homogenized in 0.25 M sucrose (one part tissue to 20 parts sucrose) in a Teflon glass homogenizer followed by the addition of sucrose buffer to a final concentration of 10% homogenate. The homogenates were centrifuged at 600 g for 15 min. The supernatant fraction was taken out and centrifuged at 4500 g for 30 min, the pellet was diluted in 0.32 M sucrose buffer and kept frozen for later assaying of MAO. Protein concentration was determined with Bradford reagent at 595 nm, using bovine serum albumin as a standard.
The test compound was added to a suitable dilution of the enzyme preparation (70 μg protein for MAO-B and 150 μg MAO-A assay) in 0.05 M phosphate buffer (pH 7.4). The mixture was incubated together with […], a specific inhibitor of MAO-B (for determination of MAO-A) or […] clorgylin, a specific inhibitor of MAO-A (for determination of MAO-B). Incubation was carried for 1 h at 37° C. before addition of ^14C-5-hydroxytryptamine binoxalate ([…]) for determination of MAO-A, or ^14C-phenylethylamine 100 µM for determination of MAO-B, and incubation continued for 30 min or 20 min, respectively. The reaction was stopped with 2 M ice-cold citric acid, and the metabolites were extracted and determined by liquid-scintillation counting in cpm units.
MAO-A and MAO-B activities were determined in rat brain homogenate in vitro following incubation with varying concentrations of the test compounds.
MAO-B activity in presence of the test compound was expressed as a percentage of that in control samples.

[1] = system: human erythroleukemia K562 cells; experiment: Iron permeation of the chelators into calcein-loaded K562 cells; assay type: cell-based; conditions: 5 μM chelator, 37° C.
Protocol: The iron-scavenging properties of the chelators were assessed in human erythroleukemia K562 cells, by loading with the permeant CAL-AM probe, in situ formation of free CAL, and binding of cytosolic labile iron. Calcein-AM readily passes through the cell membrane of viable cells because of the enhanced hydrophobicity as compared to Calcein. When Calcein-AM permeates into the cytoplasm, it is hydrolyzed by esterases in cells to the parent Calcein, a pH-independent, cytosolic fluorescent marker, which remains inside of the cell. The time-dependent recovery of fluorescence in the presence of a given chelator provided a continuous measure for the capacity of the chelator to access the iron/CAL-containing compartment.
Calcein uptake and intracellular fluorescence were determined as follows: K562 erythroleukemia cells were preloaded with calcein (CAL) by incubation with […] of the fluorescent probe CAL-AM for 5 min at 37° C., washed and incubated in HBS medium containing anti-CAL antibodies in order to quench traces of extracellular-associated fluorescence. The suspensions were placed in 96-well plates (100 μl final volume) and analyzed as described above while maintaining the system at 37° C. At the indicated time, the indicated chelator was added so as to reach a final 5 μM concentration.
The values of half maximal time (sec) and fraction of fluorescence recovery were: […]

[2] = Iron chelation in solution: fluorescence dequenching of iron-quenched calcein; conditions: Fe-CAL in HBS pH 7.4, room temperature, 1 h incubation, read-out: half maximal dequenching level
Protocol: Iron binding was determined by the chelator capacity for restoring the fluorescence of iron-quenched calcein (CAL), a dynamic fluorescent metallosensor. The iron-scavenging properties of the chelators were assessed in solution, by mixing iron salts with free CAL.
Iron precomplexed calcein (Fe-CAL) solutions of 1 μm (in Hepes 20 mM buffered saline, pH 7.4=HBS) were incubated in the presence of the indicated concentrations of different chelators at room temperature and the fluorescence intensity (475 nm->520 nm) followed with time in a Tecan fluorescence plate reader, using 96-well culture plates (Nunc) at 100 μl final volume. The time-dependent complexation of iron from Fe-CAL by the chelators was followed by fluorescence dequenching. The fluorescence intensity attained after 1 h incubation is shown as a function of the chelator concentration.
The corresponding half maximal dequenching level for the corresponding chelator was (in μM) (rank order from the fastest acting to the slowest): […]

Compound | number of survival cells (cell viability, % of cells cultured with serum) (PC12 cells) [%] | inhibitory activity against PC12 apoptosis induced by serum withdrawal (PC12 cells; 1 μM) | PC12 cell death in serum-free medium (toxicity) (PC12 cells; 10 μM) | inhibition at 100 µM (rat brain MAO-B; 100 μM) [%] | half maximal time ([1]; FIG. 2B) [s] | half maximal time ([1]; FIG. 2C) [s] | EC50 ([2]; FIG. 1B) [µM] | EC50 ([2]; FIG. 1C) [µM] | change in the protection against PC12 cell death induced by serum withdrawal (PC12 cells; 1 or 10 μM, compared with 0.1 μM) | inhibition at 100 µM (rat brain MAO-B) [%] | half maximal time ([1]; FIG. 2A) [s] | EC50 ([2]; FIG. 1A) [µM]
OCCN1CCN(Cc2ccc(O)c3ncccc23)CC1 [VK-28, 5-[4-(2-hydroxyethyl)piperazin-1-ylmethyl]-8-hydroxyquinoline, reference compound] | 80 | good inhibitory activity | about 75% | 13.3 | 1250 | 1500 | 5.2 | 3.2 | – | – | – | –
C#CCN1CCN(Cc2ccc(O)c3ncccc23)CC1 [HLA20, 5-(4-propargylpiperazin-1-ylmethyl)-8-hydroxyquinoline] | 65 | – | – | – | 390 | – | 5.4 | – | no significant change in the protection | 42 | 175 | 3.5
